9 compounds from ChEMBL document CHEMBL3804786, “Novel 1,3-thiazolidin-4-one derivatives as promising anti-Candida agents endowed with anti-oxidant and chelating properties” (Eur J Med Chem, 2016) can be followed below.

In brackets after ≈: the same amount, converted by molar mass.

One test concerns Staphylococcus aureus. Nature of the test: Antibacterial activity against Staphylococcus aureus clinical isolate after 18 to 22 hrs by broth microdilution method. It is filed as functional.
In the next test the test system is Proteus mirabilis. Nature of the test: Antibacterial activity against Proteus mirabilis clinical isolate after 18 to 22 hrs by broth microdilution method. The class given is functional.
For a further test, the system named is Candida parapsilosis. Put plainly: Antifungal activity against Candida parapsilosis clinical isolate after 24 hrs by broth microdilution method. The class given is functional. The conditions noted are these: Lodderomyces parapsilosis.
A further test concerns Candida tropicalis. Nature of the test: Antifungal activity against Candida tropicalis clinical isolate after 24 hrs by broth microdilution method. It is filed as functional.
The subject of another test is [Candida] sake. Nature of the test: Antifungal activity against Candida sake clinical isolate after 24 hrs by broth microdilution method. The class given is functional. The following applies: Fermentozyma sake.
The test system of another test is Enterobacter sp. Put plainly: Antibacterial activity against Enterobacter spp. clinical isolate after 18 to 22 hrs by broth microdilution method. The class given is functional.
The subject of the next test is Escherichia coli. Nature of the test: Antibacterial activity against Escherichia coli after clinical isolate 18 to 22 hrs by broth microdilution method. The class given is functional.
The test system of another test is Pichia kudriavzevii. Nature of the test: Antifungal activity against Candida krusei clinical isolate after 24 hrs by broth microdilution method. It is filed as functional.
The test system of another test is Nakaseomyces glabratus. Nature of the test: Antifungal activity against Candida glabrata clinical isolate after 24 hrs by broth microdilution method. The class given is functional.
The subject of the next test is Candida albicans. Nature of the test: Antifungal activity against Candida albicans clinical isolate after 24 hrs by broth microdilution method. It is filed as functional.
For a further test, the system named is Klebsiella oxytoca. Nature of the test: Antibacterial activity against Klebsiella oxytoca clinical isolate after 18 to 22 hrs by broth microdilution method. It is filed as functional.
Another test has as its system Staphylococcus warneri. Nature of the test: Antibacterial activity against Staphylococcus warneri clinical isolate after 18 to 22 hrs by broth microdilution method. The class given is functional.
The subject of test [1] is Streptococcus sp. (viridans group). Nature of the test: Antibacterial activity against Streptococcus alpha-hemolyticus clinical isolate after 18 to 22 hrs by broth microdilution method.
The subject of another test is Enterococcus faecalis. Put plainly: Antibacterial activity against Streptococcus faecalis clinical isolate after 18 to 22 hrs by broth microdilution method. It is filed as functional.

Take `CC(C)=N/N=C1\SCC(=O)N1Cc1ccc(Cl)cc1`: the minimum inhibitory concentration (MIC) is over 256 µg/mL in the test with Staphylococcus aureus; over 256 µg/mL against Proteus mirabilis; 2 µg/mL (≈ 6.76 µM) in the test on Candida parapsilosis; 8 µg/mL (≈ 27 µM) with Candida tropicalis; 4 µg/mL (≈ 13.5 µM) in test [Candida] sake; over 256 µg/mL against Enterobacter sp.. Besides, the MIC was over 256 µg/mL in the test with Escherichia coli; 8 µg/mL (≈ 27 µM) in the test with Pichia kudriavzevii; 2 µg/mL (≈ 6.76 µM) in the test with Nakaseomyces glabratus; 4 µg/mL (≈ 13.5 µM) in the test on Candida albicans; over 256 µg/mL in the test with Klebsiella oxytoca; over 256 µg/mL against Staphylococcus warneri. The MIC (in test [1]; against Enterococcus faecalis) was over 256 µg/mL in each case.

For `C/C(=N\N=C1/SCC(=O)N1Cc1cccc(F)c1)c1ccccn1`, the MIC in the test on Staphylococcus aureus is over 256 µg/mL; in the test on Proteus mirabilis it was over 256 µg/mL; in the test with Candida parapsilosis, 2 µg/mL (≈ 5.84 µM); with Candida tropicalis it was 8 µg/mL (≈ 23.4 µM); in test [Candida] sake it was 4 µg/mL (≈ 11.7 µM); in the test with Enterobacter sp., over 256 µg/mL. The minimal inhibitory concentration (MIC) with Escherichia coli was over 256 µg/mL; against Pichia kudriavzevii, 8 µg/mL (≈ 23.4 µM); against Nakaseomyces glabratus it was 2 µg/mL (≈ 5.84 µM); against Candida albicans it was 2 µg/mL (≈ 5.84 µM); against Klebsiella oxytoca, over 256 µg/mL; with Staphylococcus warneri it was over 256 µg/mL. In addition, the MIC (in [1]; against Enterococcus faecalis) was over 256 µg/mL each time.

As for `C/C(=N\N=C1/SCC(=O)N1Cc1ccccc1Cl)c1cccs1`, the minimum inhibitory concentration (MIC) against Staphylococcus aureus is over 256 µg/mL; against Proteus mirabilis, over 256 µg/mL; with Candida parapsilosis, 8 µg/mL (≈ 22 µM); in the test with Candida tropicalis, 2 µg/mL (≈ 5.5 µM); in [Candida] sake, 8 µg/mL (≈ 22 µM); against Enterobacter sp., over 256 µg/mL. In addition, the minimal inhibitory concentration (MIC) is over 256 µg/mL against Escherichia coli; 8 µg/mL (≈ 22 µM) in the test on Pichia kudriavzevii; 4 µg/mL (≈ 11 µM) against Nakaseomyces glabratus; 4 µg/mL (≈ 11 µM) against Candida albicans; over 256 µg/mL against Klebsiella oxytoca; over 256 µg/mL against Staphylococcus warneri. Further, the minimal inhibitory concentration (MIC) (in test [1]; against Enterococcus faecalis) was over 256 µg/mL in each case.

Take `CC(C)=N/N=C1\SCC(=O)N1Cc1ccccc1Cl`: the MIC in the test on Staphylococcus aureus was over 256 µg/mL; in the test with Proteus mirabilis, over 256 µg/mL; in the test with Candida parapsilosis, 8 µg/mL (≈ 27 µM); against Candida tropicalis it was 16 µg/mL (≈ 54.1 µM); in test [Candida] sake, 2 µg/mL (≈ 6.76 µM); against Enterobacter sp., over 256 µg/mL. Further, the minimal inhibitory concentration (MIC) against Escherichia coli was over 256 µg/mL; in the test on Pichia kudriavzevii it was 8 µg/mL (≈ 27 µM); in the test on Nakaseomyces glabratus, 2 µg/mL (≈ 6.76 µM); in the test on Candida albicans, 2 µg/mL (≈ 6.76 µM); against Klebsiella oxytoca it was over 256 µg/mL; with Staphylococcus warneri it was over 256 µg/mL. Moreover, the MIC (in test [1]; in the test with Enterococcus faecalis) was over 256 µg/mL throughout.

In the case of `CC(C)=N/N=C1\SCC(=O)N1Cc1cccc(F)c1`, the MIC in the test on Staphylococcus aureus is over 256 µg/mL; against Proteus mirabilis it was over 256 µg/mL; with Candida parapsilosis, 2 µg/mL (≈ 7.16 µM); with Candida tropicalis it was 4 µg/mL (≈ 14.3 µM); in test [Candida] sake, 8 µg/mL (≈ 28.6 µM); in the test on Enterobacter sp. it was over 256 µg/mL. For the same compound, the MIC against Escherichia coli is over 256 µg/mL; in the test on Pichia kudriavzevii, 4 µg/mL (≈ 14.3 µM); in the test with Nakaseomyces glabratus, 4 µg/mL (≈ 14.3 µM); with Candida albicans, 4 µg/mL (≈ 14.3 µM); in the test with Klebsiella oxytoca it was over 256 µg/mL; in the test with Staphylococcus warneri it was over 256 µg/mL. Also, the minimal inhibitory concentration (MIC) (in test [1]; with Enterococcus faecalis) was over 256 µg/mL throughout.

As for `O=C1CS/C(=N\N=C2CCCC2)N1Cc1cccc(F)c1`, the MIC is over 256 µg/mL in the test with Staphylococcus aureus; over 256 µg/mL against Proteus mirabilis; 4 µg/mL (≈ 13.1 µM) with Candida parapsilosis; 16 µg/mL (≈ 52.4 µM) with Candida tropicalis; 8 µg/mL (≈ 26.2 µM) in test [Candida] sake; over 256 µg/mL in the test with Enterobacter sp.. For the same compound, the minimum inhibitory concentration (MIC) against Escherichia coli was over 256 µg/mL; with Pichia kudriavzevii it was 2 µg/mL (≈ 6.55 µM); in the test with Nakaseomyces glabratus it was 2 µg/mL (≈ 6.55 µM); with Candida albicans, 4 µg/mL (≈ 13.1 µM); with Klebsiella oxytoca, over 256 µg/mL; with Staphylococcus warneri, over 256 µg/mL. Moreover, the MIC (in test [1]; against Enterococcus faecalis) was over 256 µg/mL each time.

Turning to `CC(C)=N/N=C1\SCC(=O)N1Cc1ccc(F)cc1`, the MIC in the test with Staphylococcus aureus was over 256 µg/mL; in the test with Proteus mirabilis it was over 256 µg/mL; with Candida parapsilosis, 2 µg/mL (≈ 7.16 µM); against Candida tropicalis, 16 µg/mL (≈ 57.3 µM); in test [Candida] sake it was 8 µg/mL (≈ 28.6 µM); against Enterobacter sp. it was over 256 µg/mL. The MIC with Escherichia coli is over 256 µg/mL; with Pichia kudriavzevii, 16 µg/mL (≈ 57.3 µM); in the test with Nakaseomyces glabratus, 4 µg/mL (≈ 14.3 µM); in the test on Candida albicans it was 8 µg/mL (≈ 28.6 µM); against Klebsiella oxytoca it was over 256 µg/mL; in the test on Staphylococcus warneri, over 256 µg/mL. The minimal inhibitory concentration (MIC) (in test [1]; with Enterococcus faecalis) was over 256 µg/mL throughout.

As to `O=C1CS/C(=N\N=C2CCCC2)N1Cc1ccc(F)cc1`, the MIC in the test with Staphylococcus aureus is over 256 µg/mL; with Proteus mirabilis, over 256 µg/mL; with Candida parapsilosis, 2 µg/mL (≈ 6.55 µM); in the test on Candida tropicalis it was 16 µg/mL (≈ 52.4 µM); in [Candida] sake, 8 µg/mL (≈ 26.2 µM); in the test on Enterobacter sp., over 256 µg/mL. The MIC is over 256 µg/mL with Escherichia coli; 8 µg/mL (≈ 26.2 µM) in the test with Pichia kudriavzevii; 4 µg/mL (≈ 13.1 µM) in the test with Nakaseomyces glabratus; 8 µg/mL (≈ 26.2 µM) against Candida albicans; over 256 µg/mL against Klebsiella oxytoca; over 256 µg/mL in the test with Staphylococcus warneri. Moreover, the minimum inhibitory concentration (MIC) (in [1]; in the test with Enterococcus faecalis) was over 256 µg/mL throughout.

With `CC(C)=N/N=C1\SCC(=O)N1Cc1cccc(Cl)c1`, the minimal inhibitory concentration (MIC) is over 256 µg/mL in the test with Staphylococcus aureus; over 256 µg/mL against Proteus mirabilis; 4 µg/mL (≈ 13.5 µM) against Candida parapsilosis; 2 µg/mL (≈ 6.76 µM) in the test on Candida tropicalis; 4 µg/mL (≈ 13.5 µM) in test [Candida] sake; over 256 µg/mL with Enterobacter sp.. Further, the minimum inhibitory concentration (MIC) was over 256 µg/mL against Escherichia coli; 2 µg/mL (≈ 6.76 µM) in the test with Pichia kudriavzevii; 4 µg/mL (≈ 13.5 µM) in the test on Nakaseomyces glabratus; 8 µg/mL (≈ 27 µM) with Candida albicans; over 256 µg/mL with Klebsiella oxytoca; over 256 µg/mL with Staphylococcus warneri. Also, the minimal inhibitory concentration (MIC) (in test [1]; in the test with Enterococcus faecalis) was over 256 µg/mL in each case.
